Measured values from the supplement of paper PMC8253809.

Tests used:
HABS [1] = astrocyte control; experiment: growth inhibition relative to DMSO (0) and positive control (1) (fraction); higher = more growth inhibition
Experimental: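 Paxalisib (GDC0084) x mirdametinib (PD0325901) dose matrix on pHGG cell lines and astrocyte controls, 7 days, adherent 384-well. CellTiter-Glo RLU was normalised (no log2) to fractional activity between DMSO (0) and the positive control (1). Each combination was tested in two plate orientations.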

HGGX6 [2] = H3.3 G34R paediatric high-grade glioma line; experiment: EC50 (inflection of fitted growth-inhibition curve) (log10 M)
Method in brief: (§1)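 Viability readout was CellTiter-Glo luminescence, log2-transformed, normalised per plate to % activity between negative (solvent) and positive control wells, then pooled. This followed a 7-day exposure (3 days for iAstro) at 37 °C, 5% CO2 to a 10-point threefold dilution series (mean top concentration 35 μM), pin-tool delivered in triplicate to patient-derived pHGG/DIPG cell lines and astrocyte controls on 1% Geltrex-coated 384-well plates. Three- and four-parameter log-logistic fits were compared, and the one with the lowest AICc supplied EC50 and maximal response (yFin).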

DIPGX29 = H3.3 K27M diffuse intrinsic pontine glioma line; experiment: maximal growth inhibition (yFin) relative to DMSO / staurosporine; higher = more efficacious
Method in brief: as §1

DIPGX37 = H3.3 K27M diffuse intrinsic pontine glioma line; experiment: as above
Method in brief: as §1

DIPGX7 = H3.3 K27M diffuse intrinsic pontine glioma line; experiment: as above
Method in brief: as §1

DIPGX9 = diffuse intrinsic pontine glioma line; experiment: as above
Method in brief: as §1

HGGX2 = paediatric high-grade glioma line; experiment: as above
Method in brief: as §1

HGGX39 = paediatric high-grade glioma line; experiment: as above
Method in brief: as §1

HGGX42 = H3.3 G34R paediatric high-grade glioma line; experiment: as above
Method in brief: as §1

HGGX6 [3] = experiment: as above
Method in brief: as §1

SUDIPGIV = diffuse intrinsic pontine glioma line; experiment: as above
Method in brief: as §1

SUDIPGVI = diffuse intrinsic pontine glioma line; experiment: as above
Method in brief: as §1

SUDIPGXIII = diffuse intrinsic pontine glioma line; experiment: as above
Method in brief: as §1

SUDIPGXIX = diffuse intrinsic pontine glioma line; experiment: as above
Method in brief: as §1

SUDIPGXVII = diffuse intrinsic pontine glioma line; experiment: as above
Method in brief: as §1

SUDIPGXXI = diffuse intrinsic pontine glioma line; experiment: as above
Method in brief: as §1

iAstro = astrocyte control; experiment: as above
Method in brief: as §1

HABS [4] = experiment: as above
Method in brief: as §1

O=C(NOC[C@H](O)CO)c1ccc(F)c(F)c1Nc1ccc(I)cc1F + CC1(C)OCCn2c1nc1c(N3CCOCC3)nc(-c3cnc(N)nc3)nc12 [GDC0084]
growth inhibition, HABS [1]
Conditions | compound 1 concentration 0.009766 µM | compound 1 concentration 0.01953 µM | compound 1 concentration 0.03906 µM | compound 1 concentration 0.07812 µM | compound 1 concentration 0.15625 µM | compound 1 concentration 0.3125 µM | compound 1 concentration 0.625 µM | compound 1 concentration 1.25 µM | compound 1 concentration 5 µM | compound 1 concentration 20 µM
compound 2 concentration 0.03906 µM | -0.277 | -0.277 | -0.363 | -0.35 | -0.36 | -0.157 | 0.0702 | 0.206 | 0.655 | 0.785
compound 2 concentration 0.07812 µM | -0.0837 | -0.115 | -0.185 | -0.276 | -0.182 | -0.0585 | 0.174 | 0.282 | 0.686 | 0.84
compound 2 concentration 0.15625 µM | 0.00867 | -0.00819 | -0.125 | -0.152 | -0.102 | 0.0679 | 0.212 | 0.368 | 0.765 | 0.893
compound 2 concentration 0.3125 µM | 0.0584 | 0.00491 | -0.0298 | -0.035 | -0.004 | 0.119 | 0.251 | 0.39 | 0.784 | 0.918
compound 2 concentration 0.625 µM | 0.158 | 0.129 | 0.116 | 0.0817 | 0.117 | 0.224 | 0.337 | 0.487 | 0.849 | 0.948
compound 2 concentration 1.25 µM | 0.352 | 0.341 | 0.305 | 0.259 | 0.336 | 0.387 | 0.482 | 0.573 | 0.912 | 0.98
compound 2 concentration 5 µM | 0.731 | 0.725 | 0.702 | 0.703 | 0.706 | 0.689 | 0.739 | 0.792 | 0.974 | 0.997
compound 2 concentration 20 µM | 0.963 | 0.956 | 0.951 | 0.939 | 0.938 | 0.927 | 0.938 | 0.957 | 0.998 | 1

CCN1CCN(Cc2ccc(Nc3ncc(F)c(-c4cc(F)c5nc(C)n(C(C)C)c5c4)n3)nc2)CC1 [ABEMACICLIB]
Conditions | EC50 (log10 M) | maximal growth inhibition [%]
DIPGX7 | – | 110
DIPGX9 | – | 43.3
DIPGX29 | – | 38.4
DIPGX37 | – | 99.9
HGGX2 | – | 42.3
HGGX6 [2] | -5.83 | –
HGGX6 [3] | – | 69.4
HGGX39 | – | 84.4
HGGX42 | – | 30.7
SUDIPGIV | – | 76.8
SUDIPGVI | – | 48.9
SUDIPGXIII | – | 52.5
SUDIPGXIX | – | 110
SUDIPGXVII | – | 61.1
SUDIPGXXI | – | 96.9
iAstro | – | 59

COCC1(CO)C(=O)C2CCN1CC2 (stereo unspecified) [APR-246]
Conditions | EC50 (log10 M) | maximal growth inhibition [%]
DIPGX7 | – | 102
DIPGX9 | – | 105
DIPGX29 | – | 106
DIPGX37 | – | 111
HGGX2 | – | 97.9
HGGX6 [2] | -4.81 | –
HGGX6 [3] | – | 90.1
HGGX42 | – | 99.8
SUDIPGIV | – | 105
SUDIPGVI | – | 102
SUDIPGXIII | – | 97.3
SUDIPGXIX | – | 96.4
SUDIPGXVII | – | 99
SUDIPGXXI | – | 112
iAstro | – | 90.9

CN1[C@@H]2CC[C@H]1C[C@@H](OC(=O)c1cc(Cl)cc(Cl)c1)C2 [BEMESETRON]
Conditions | EC50 (log10 M) | maximal growth inhibition [%]
DIPGX7 | – | 90.5
DIPGX9 | – | 43.8
DIPGX29 | – | 89.8
DIPGX37 | – | 102
HABS [4] | – | 20.8
HGGX2 | – | 49.4
HGGX6 [2] | -4.86 | –
HGGX6 [3] | – | 63.8
HGGX39 | – | 81.4
HGGX42 | – | 86.2
SUDIPGIV | – | 77.1
SUDIPGXIX | – | 77.2
SUDIPGXVII | – | 44.2
SUDIPGXXI | – | 104
iAstro | – | 36.1

Cc1noc2c1-c1ccccc1C(c1ccc(Cl)cc1)=N[C@H]2CC(N)=O [CPI-0610]
Conditions | EC50 (log10 M) | maximal growth inhibition [%]
DIPGX7 | – | 116
DIPGX9 | – | 113
DIPGX29 | – | 90.8
HABS [4] | – | 72.8
HGGX2 | – | 69.1
HGGX6 [2] | -5.43 | –
HGGX6 [3] | – | 41.6
HGGX39 | – | 109
HGGX42 | – | 80.1
SUDIPGIV | – | 75.1
SUDIPGVI | – | 106
SUDIPGXIX | – | 127
SUDIPGXVII | – | 63.3
SUDIPGXXI | – | 116
iAstro | – | 39

CC1(C)OCCn2c1nc1c(N3CCOCC3)nc(-c3cnc(N)nc3)nc12 [GDC0084] + O=C(NOC[C@H](O)CO)c1ccc(F)c(F)c1Nc1ccc(I)cc1F [PD0325901]
growth inhibition, HABS [1]
Conditions | compound 1 concentration 0.009766 µM | compound 1 concentration 0.01953 µM | compound 1 concentration 0.03906 µM | compound 1 concentration 0.07812 µM | compound 1 concentration 0.15625 µM | compound 1 concentration 0.3125 µM | compound 1 concentration 0.625 µM | compound 1 concentration 1.25 µM | compound 1 concentration 5 µM | compound 1 concentration 20 µM
compound 2 concentration 0.03906 µM | -0.37 | -0.333 | -0.284 | -0.211 | -0.192 | -0.0322 | 0.16 | 0.363 | 0.773 | 0.974
compound 2 concentration 0.07812 µM | -0.231 | -0.228 | -0.183 | -0.184 | -0.0583 | 0.0322 | 0.187 | 0.365 | 0.734 | 0.954
compound 2 concentration 0.15625 µM | -0.225 | -0.157 | -0.11 | -0.0914 | 0.000284 | 0.0786 | 0.237 | 0.371 | 0.734 | 0.943
compound 2 concentration 0.3125 µM | -0.0761 | -0.0499 | -0.0388 | 0.00861 | 0.0797 | 0.184 | 0.292 | 0.419 | 0.718 | 0.923
compound 2 concentration 0.625 µM | 0.163 | 0.146 | 0.187 | 0.252 | 0.293 | 0.374 | 0.474 | 0.574 | 0.798 | 0.946
compound 2 concentration 1.25 µM | 0.291 | 0.301 | 0.34 | 0.347 | 0.406 | 0.457 | 0.538 | 0.624 | 0.807 | 0.966
compound 2 concentration 5 µM | 0.677 | 0.695 | 0.698 | 0.722 | 0.793 | 0.854 | 0.895 | 0.922 | 0.982 | 0.999
compound 2 concentration 20 µM | 0.792 | 0.82 | 0.846 | 0.876 | 0.911 | 0.94 | 0.968 | 0.986 | 0.999 | 1

C=CCn1c(=O)c2cnc(Nc3ccc(N4CCN(C)CC4)cc3)nc2n1-c1cccc(C(C)(C)O)n1 [MK-1775]
Conditions | EC50 (log10 M) | maximal growth inhibition [%]
DIPGX7 | – | 25
DIPGX9 | – | 41.4
DIPGX29 | – | 39.2
DIPGX37 | – | 22.2
HABS [4] | – | 26.7
HGGX2 | – | 31
HGGX6 [2] | -5.72 | –
HGGX6 [3] | – | 24.9
HGGX39 | – | 43.8
HGGX42 | – | 34.5
SUDIPGIV | – | 46.7
SUDIPGXIX | – | 37.7
SUDIPGXVII | – | 25.1
SUDIPGXXI | – | 91.8
iAstro | – | 36.6
